Data published in EP2271935B1, “METHOD AND KIT FOR THE EX VIVO EVALUATION OF THE RESPONSE OF A TUMOR TO CONDITIONS TO BE TESTED” (Universität Leipzig, priority 2008, dated 2009).
Like-named read-outs stand apart in the source and are kept apart here.

Test system: epithelial cell line KB (DSMZ ACC 136)
Assay: MTT assay of proliferation under varied riboflavin content and light exposure
Assay type: cell-based, human
Text: To address this question, three media, a) the RPMI 1640 without riboflavin and phenol red that is used in the method according to the invention and was manufactured according to our specifications by Biochrom, as well as two different RPMI 1640 charges purchased from Invitrogen which were each containing 532 nmol/L riboflavin, b) a phenol red-free (Gibco 11835), and c) a conventional RPMI 1640 (Gibco 21875) with 13.284 µmol/L phenol red. All media were supplemented with 2 mmol/L L-alanyl-1-glutamine as stabilized glutamine source (Biochrom K0302 Lot 0755 S) and the same amount of 10% (v/v) of heat-inactivated fetal calf serum (FCS) that was purchased from Invitrogen (Lot 41Q7554K) with a yield of 198 nmol/L riboflavin. […] These medium concentrations define the riboflavin concentrations in controls (see below).
In addition to the influences exerted by the different types of media alone, the riboflavin-dependent impact on the outcome of the docetaxel treatment was investigated. For this purpose 100 µl/well of docetaxel dilutions containing threefold the concentration indicated were added into the wells of microwell plates. The following seven docetaxel concentrations were tested: 19.38, 38.75, 77.5, 155, 310, 620, and 1,240 pmol/L.
To examine photoactivation-dependent riboflavin-mediated effects disturbing the outcome of ex-vivo chemoresponse-evaluation by conventional cell culture medium, and in particular in the absence of flavin-protecting experimental conditions, varying amounts of riboflavin were added. A stock solution of 200 µM (-)-riboflavin (CAS 83-68-5, Sigma R9504, FW=376.37 g/mol, purity >99%, cell culture tested) in phosphate buffered saline was diluted to adjust in each case the highest final concentration in culture (this means: after completion of the assay by addition of the other two components to the final assay volume of 300 µL) to exactly 10 µmol/L. Serial log10-dilutions were made from this concentration in each corresponding medium. These gave final concentrations in cell culture of 10.000, 1.018, 0.12, and 0.03 µmol/L in the case of medium a) (the medium according to the method of the invention), and concentrations of 10.000, 1.449, 0.594, and 0.508 µmol/L using media b) and c).
In general, each combination of riboflavin and docetaxel were tested in duplicate, and controls without additional riboflavin in quadruplicate for each experimental setting in the same 96-well plate. The experimental conditions were as follows: For each of the used media, two different plates were prepared simultaneously and either handled completely under flavin-protecting conditions (illumination only by sodium discharge lamps with an emission wavelength of 589 nm [i]), or in the same bench (Thermo MSC 12) with the installed light inside their working chamber switched on. The dilution of docetaxel and those of riboflavin in the particular medium were prepared for all four plates of each medium type prior to the other working steps under flavin-protecting conditions. Thus the administrations of these dilutions took about 20 min either under flavin-protecting conditions or illuminated conditions. After completed preparation of the plates that thereafter contained 200 µL of both diluted compounds, the plates were incubated 2 h in the incubator to allow for adjustment of the appropriate pH.
In between the stock culture of KB was harvested by trypsination of a 3-days stock culture (exponential growth phase). Stock cultures of KB cells always were grown without any antibiotic or antimycotic in phenol red- and riboflavin-free RPMI 1640 supplemented with 10% (v/v) FCS and were adapted to this medium for more than five passages. They were always handled at room temperature or warmer and were never exposed to light other than the light of a sodium discharge lamp with an emission wavelength of 589 nm for at least five passages. […]

IC50 (Homo sapiens, Epithelial cell, 0.5 h, Plate No. 07; Riboflavin 499 nmol/L; medium b) phenol red-free RPMI 1640, bench lighting <30 min, read-out: IC50 for docetaxel with reference to control with same riboflavin content): 0.169 nM | IC50 (Homo sapiens, Epithelial cell, 0.5 h, Plate No. 07; Riboflavin 508 nmol/L; medium b) phenol red-free RPMI 1640, bench lighting <30 min, read-out: IC50 for docetaxel with reference to control with same riboflavin content): 0.124 nM | IC50 (Homo sapiens, Epithelial cell, 0.5 h, Plate No. 07; Riboflavin 594 nmol/L; medium b) phenol red-free RPMI 1640, bench lighting <30 min, read-out: IC50 for docetaxel with reference to control with same riboflavin content): 0.172 nM | IC50 (Homo sapiens, Epithelial cell, 0.5 h, Plate No. 07; Riboflavin 1449 nmol/L; medium b) phenol red-free RPMI 1640, bench lighting <30 min, read-out: IC50 for docetaxel with reference to control with same riboflavin content): 0.128 nM | IC50 (Homo sapiens, Epithelial cell, 0.5 h, Plate No. 07; Riboflavin 10000 nmol/L; medium b) phenol red-free RPMI 1640, bench lighting <30 min, read-out: IC50 for docetaxel with reference to control with same riboflavin content): 0.135 nM | IC50 (Homo sapiens, Epithelial cell, 0.5 h, Plate No. 08; Riboflavin 499 nmol/L; medium b) phenol red-free RPMI 1640, bench lighting <30 min, daylight 30 min, read-out: IC50 for docetaxel with reference to control with same riboflavin content): 0.181 nM | IC50 (Homo sapiens, Epithelial cell, 0.5 h, Plate No. 08; Riboflavin 508 nmol/L; medium b) phenol red-free RPMI 1640, bench lighting <30 min, daylight 30 min, read-out: IC50 for docetaxel with reference to control with same riboflavin content): 0.186 nM | IC50 (Homo sapiens, Epithelial cell, 0.5 h, Plate No. 08; Riboflavin 594 nmol/L; medium b) phenol red-free RPMI 1640, bench lighting <30 min, daylight 30 min, read-out: IC50 for docetaxel with reference to control with same riboflavin content): 0.208 nM | IC50 (Homo sapiens, Epithelial cell, 0.5 h, Plate No. 10; Riboflavin 499 nmol/L; medium c) conventional RPMI 1640 with phenol red, daylight 30 min, read-out: IC50 for docetaxel with reference to control with same riboflavin content): 0.421 nM | IC50 (Homo sapiens, Epithelial cell, 0.5 h, Plate No. 10; Riboflavin 508 nmol/L; medium c) conventional RPMI 1640 with phenol red, daylight 30 min, read-out: IC50 for docetaxel with reference to control with same riboflavin content): 0.337 nM | IC50 (Homo sapiens, Epithelial cell, 0.5 h, Plate No. 10; Riboflavin 594 nmol/L; medium c) conventional RPMI 1640 with phenol red, daylight 30 min, read-out: IC50 for docetaxel with reference to control with same riboflavin content): 0.264 nM | IC50 (Homo sapiens, Epithelial cell, 0.5 h, Plate No. 10; Riboflavin 1449 nmol/L; medium c) conventional RPMI 1640 with phenol red, daylight 30 min, read-out: IC50 for docetaxel with reference to control with same riboflavin content): 0.136 nM | IC50 (Homo sapiens, Epithelial cell, 0.5 h, Plate No. 11; Riboflavin 499 nmol/L; medium c) conventional RPMI 1640 with phenol red, bench lighting <30 min, read-out: IC50 for docetaxel with reference to control with same riboflavin content): 0.225 nM
Compound: CC(=O)O[C@@]12CO[C@@H]1C[C@H](O)[C@@]1(C)C(=O)[C@H](O)C3=C(C)[C@@H](OC(=O)[C@H](O)[C@@H](NC(=O)OC(C)(C)C)c4ccccc4)C[C@@](O)([C@@H](OC(=O)c4ccccc4)[C@H]21)C3(C)C [docetaxel]
IC50 (Homo sapiens, Epithelial cell, 0.5 h, Plate No. 06; Riboflavin 594 nmol/L; medium b), daylight 30 min, read-out: IC50 for docetaxel normalized to medium control of medium with same riboflavin content): 0.0838 nM | IC50 (Homo sapiens, Epithelial cell, 0.5 h, Plate No. 07; Riboflavin 499 nmol/L; medium b), bench lighting <30 min, read-out: IC50 for docetaxel normalized to medium control of medium with same riboflavin content): 0.1 nM | IC50 (Homo sapiens, Epithelial cell, 0.5 h, Plate No. 07; Riboflavin 508 nmol/L; medium b), bench lighting <30 min, read-out: IC50 for docetaxel normalized to medium control of medium with same riboflavin content): 0.0735 nM | IC50 (Homo sapiens, Epithelial cell, 0.5 h, Plate No. 07; Riboflavin 594 nmol/L; medium b), bench lighting <30 min, read-out: IC50 for docetaxel normalized to medium control of medium with same riboflavin content): 0.102 nM | IC50 (Homo sapiens, Epithelial cell, 0.5 h, Plate No. 07; Riboflavin 1449 nmol/L; medium b), bench lighting <30 min, read-out: IC50 for docetaxel normalized to medium control of medium with same riboflavin content): 0.0759 nM | IC50 (Homo sapiens, Epithelial cell, 0.5 h, Plate No. 07; Riboflavin 10000 nmol/L; medium b), bench lighting <30 min, read-out: IC50 for docetaxel normalized to medium control of medium with same riboflavin content): 0.0801 nM | IC50 (Homo sapiens, Epithelial cell, 0.5 h, Plate No. 08; Riboflavin 499 nmol/L; medium b), bench lighting <30 min, daylight 30 min, read-out: IC50 for docetaxel normalized to medium control of medium with same riboflavin content): 0.1 nM | IC50 (Homo sapiens, Epithelial cell, 0.5 h, Plate No. 08; Riboflavin 508 nmol/L; medium b), bench lighting <30 min, daylight 30 min, read-out: IC50 for docetaxel normalized to medium control of medium with same riboflavin content): 0.103 nM | IC50 (Homo sapiens, Epithelial cell, 0.5 h, Plate No. 08; Riboflavin 594 nmol/L; medium b), bench lighting <30 min, daylight 30 min, read-out: IC50 for docetaxel normalized to medium control of medium with same riboflavin content): 0.115 nM | IC50 (Homo sapiens, Epithelial cell, 0.5 h, Plate No. 10; Riboflavin 499 nmol/L; medium c), daylight 30 min, read-out: IC50 for docetaxel normalized to medium control of medium with same riboflavin content): 0.1 nM | IC50 (Homo sapiens, Epithelial cell, 0.5 h, Plate No. 10; Riboflavin 508 nmol/L; medium c), daylight 30 min, read-out: IC50 for docetaxel normalized to medium control of medium with same riboflavin content): 0.0801 nM | IC50 (Homo sapiens, Epithelial cell, 0.5 h, Plate No. 10; Riboflavin 594 nmol/L; medium c), daylight 30 min, read-out: IC50 for docetaxel normalized to medium control of medium with same riboflavin content): 0.0627 nM | IC50 (Homo sapiens, Epithelial cell, 0.5 h, Plate No. 10; Riboflavin 1449 nmol/L; medium c), daylight 30 min, read-out: IC50 for docetaxel normalized to medium control of medium with same riboflavin content): 0.0323 nM
